Data taken from EPA's ToxRefDB 2.

Experiments:
rat [1] = settings: Developmental neurotoxicity study; sprague dawley; Oral; [Not Specified]; dose end: 87 PND; group: cannot be grouped; systemic / in life observation / clinical signs / abnormal posture
rat [2] = settings: Multigenerational reproductive toxicity study, sprague dawley, Oral, Feed, dose end: 3 generation
rat [3] = settings: Subchronic oral toxicity in rodents, other, Feed, dose end: 90 day, group: systemic
mouse [4] = settings: Combined chronic toxicity/carcinogenicity; b6c3f1; Oral; Feed; dose end: 107 week; group: systemic; systemic / pathology microscopic / liver / hepatocyte, multinucleate
rat [5] = settings: Developmental neurotoxicity study, sprague dawley, Oral, Feed, dose end: 72 PND, group: cannot be grouped
mouse [6] = settings: Developmental neurotoxicity study; other; Oral; Feed; dose end: 77 PND; group: cannot be grouped; systemic / pathology microscopic / brain / [other] + systemic / pathology microscopic / brain / depletion
mouse [7] = settings: Carcinogenicity; b6c3f1; Oral; Feed; dose end: 80 week; group: systemic; systemic / pathology microscopic / liver / hepatocellular carcinoma + systemic / in life observation / clinical signs / alopecia + systemic…
rat [8] = settings: Carcinogenicity, other, Oral, Feed, dose end: 80 week, group: systemic
[9] = group: offspring, developmental / developmental landmark / vaginal opening / vaginal opening + systemic / in life observation / body weight / offspring (pup) …
[10] = group: parental, systemic / in life observation / body weight / body weight + systemic / in life observation / body weight / body weight gain + systemic / …
[11] = group: reproductive, reproductive / reproductive performance / implantations / implantations + reproductive / offspring survival early / litter size / litter …
[12] = systemic / in life observation / food consumption / food consumption
[13] = systemic / in life observation / food consumption / food consumption + systemic / in life observation / body weight / body weight
[14] = systemic / in life observation / body weight / body weight + systemic / in life observation / body weight / body weight gain + systemic / in…
[15] = systemic / in life observation / body weight / body weight + systemic / in life observation / clinical signs / fur (altered appearance) + …
[16] = systemic / in life observation / clinical signs / fur (altered appearance) + systemic / in life observation / clinical signs / palpable mass…

## CC(C)(c1ccc(O)cc1)c1ccc(O)cc1 [Bisphenol A]
Rat [1]
  LEL: 0.04 mg/kg/day
  LOAEL: > 0.4 mg/kg/day
  NEL: < 0.04 mg/kg/day
  NOAEL: ≥ 0.4 mg/kg/day
Rat [2]; [9]
  LEL: 500 mg/kg/day
  LOAEL: > 500 mg/kg/day
  NEL: 50 mg/kg/day
  NOAEL: ≥ 500 mg/kg/day
Rat [2]; group: parental, systemic / in life observation / body weight / body weight + systemic / in life observation / body weight / body weight gain
  LEL: 50 mg/kg/day
Rat [2]; [10]
  LOAEL: > 500 mg/kg/day
  NEL: 5 mg/kg/day
  NOAEL: ≥ 500 mg/kg/day
Rat [2]; group: reproductive, reproductive / reproductive performance / implantations / implantations
  NEL: 50 mg/kg/day
Rat [2]; [11]
  LEL: 500 mg/kg/day
  LOAEL: > 500 mg/kg/day
  NOAEL: ≥ 500 mg/kg/day
Rat [3]; [12]
  LEL: 5 mg/kg/day
  NEL: < 5 mg/kg/day
Rat [3]; [13]
  LOAEL: > 25 mg/kg/day
  NOAEL: ≥ 25 mg/kg/day
Mouse [4]
  LEL: 150 mg/kg/day
  LOAEL: > 750 mg/kg/day
  NEL: < 150 mg/kg/day
  NOAEL: ≥ 750 mg/kg/day
Rat [5]; systemic / in life observation / body weight / body weight + systemic / in life observation / body weight / body weight gain
  LOAEL: 56.4 mg/kg/day
Rat [5]; [14]
  LEL: 56.4 mg/kg/day
  NEL: 5.85 mg/kg/day
  NOAEL: 5.85 mg/kg/day
Mouse [6]
  LEL: 0.03 mg/kg/day
  LOAEL: > 2000 mg/kg/day
  NEL: < 0.03 mg/kg/day
  NOAEL: ≥ 2000 mg/kg/day

## ClC1=C(Cl)[C@]2(Cl)C3C(Cl)C(Cl)CC3[C@@]1(Cl)C2(Cl)Cl (stereo not given in full) [Chlordane]
Mouse [7]
  LEL: 4.49 mg/kg/day
  LOAEL: > 8.43 mg/kg/day
  NEL: < 4.49 mg/kg/day
  NOAEL: ≥ 8.43 mg/kg/day
Rat [8]; [15]
  LOAEL: > 12.1 mg/kg/day
  NOAEL: ≥ 12.1 mg/kg/day
Rat [8]; [16]
  LEL: 6.04 mg/kg/day
  NEL: < 6.04 mg/kg/day
